The assay concerns B6C3F1 mice, ip Sarcoma M5076, median survival T/C. Kind of assay: NCI In Vivo Anticancer Drug Screen. Data for tumor model Sarcoma M5076 (intraperitoneal) in B6C3F1 mice. The conditions noted are these: endpoint: median survival time, higher = longer survival. In short, it runs like this: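 Mice carrying the transplanted tumour received compound treatment. Survival was recorded, and each value is the treated-group measurement divided by that of the vehicle-dosed control group.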

Where [1] appears, read: dose: 50.0 mg/kg/injection, schedule: Q04DX004 (ip), vehicle: saline with Tween-80.
Setting [2] is: dose: 100.0 mg/kg/injection, schedule: Q04DX004 (ip), vehicle: saline with Tween-80.
Setting [3] is: dose: 200.0 mg/kg/injection, schedule: Q04DX004 (ip), vehicle: saline with Tween-80.
Setting [4] is: dose: 400.0 mg/kg/injection, schedule: Q04DX004 (ip), vehicle: saline with Tween-80.
Setting [5] is: dose: 800.0 mg/kg/injection, schedule: Q04DX004 (ip), vehicle: saline with Tween-80.
Setting [6] is: dose: 25.0 mg/kg/injection, schedule: Q04DX004 (ip), vehicle: saline with Tween-80.
Where [7] appears, read: dose: 50.0 mg/kg/injection, schedule: Q04DX004 (ip), vehicle: Klucel (hydroxypropylcellulose) (HPC).
Setting [8] is: dose: 100.0 mg/kg/injection, schedule: Q04DX004 (ip), vehicle: Klucel (hydroxypropylcellulose) (HPC).
Where [9] appears, read: dose: 200.0 mg/kg/injection, schedule: Q04DX004 (ip), vehicle: Klucel (hydroxypropylcellulose) (HPC).
[10] abbreviates: dose: 25.0 mg/kg/injection, schedule: Q04DX004 (ip), vehicle: Klucel (hydroxypropylcellulose) (HPC).

Several values for one entry are separate records, joined by “and”; a condition that tells them apart may be missing. Equal values may be shown once. Toxic doses and inconclusive results are not listed.

These results are taken from PubChem BioAssay AID292 (DTP/NCI, 2004).

Turning to `Cc1c(C(=N)C(C#N)C#N)c(=N)oc2c1ccc1ccccc12`, the T/C is 96 % of control under setting [1]; 96 % of control under setting [2]; 92 % of control under setting [3]; 94 % of control under setting [4]; 93 % of control under setting [5].
Turning to `COC1OC(COC(C)=O)C(OC(C)=O)C(OC(C)=O)[CH]1[Hg][O]C(C)=O` (stereo not drawn), the T/C by setting is: (dose: 6.25 mg/kg/injection, schedule: Q04DX004 (ip), vehicle: Klucel (hydroxypropylcellulose) (HPC)) 95 % of control; (dose: 12.5 mg/kg/injection, schedule: Q04DX004 (ip), vehicle: Klucel (hydroxypropylcellulose) (HPC)) 96 % of control.
Regarding `O=C1N(Cl)C(=O)C(c2ccc(Cl)cc2)(c2ccc(Cl)cc2)N1Cl`, the T/C by setting is: under setting [6], 102 % of control; under setting [1], 102 % of control; under setting [2], 96 % of control.
In the case of `C/C=C\C1OC1(C)c1cc(=O)c2c(C)cc3c(c2o1)C(=O)c1c(O)c(C2CC(C)(N(C)C)C(OC(C)=O)C(C)O2)cc(C2CC(N(C)C)C(O)C(C)O2)c1C3=O` (stereo not drawn), the T/C is, setting by setting: (dose: 0.19 mg/kg/injection, schedule: Q04DX004 (ip), vehicle: saline + alcohol) 105 % of control; (dose: 0.38 mg/kg/injection, schedule: Q04DX004 (ip), vehicle: saline + alcohol) 110 % of control; (dose: 0.75 mg/kg/injection, schedule: Q04DX004 (ip), vehicle: saline + alcohol) 120 % of control; (dose: 3.0 mg/kg/injection, schedule: Q04DX004 (ip), vehicle: saline + alcohol) 156 % of control.
In the case of `O=C1NC2(CCCCC2)C(=O)N1CCN(CCCl)CCCl`, the T/C (dose: 0.75 mg/kg/injection, schedule: Q01DX009 (ip), vehicle: saline with Tween-80) was 111 % of control; the T/C (dose: 1.5 mg/kg/injection, schedule: Q01DX009 (ip), vehicle: saline with Tween-80) is 113 % of control; the T/C (dose: 7.2 mg/kg/injection, schedule: Q01DX009 (ip), vehicle: saline with Tween-80) is 154 % of control; the T/C (dose: 12.0 mg/kg/injection, schedule: Q01DX009 (ip), vehicle: saline with Tween-80) is 166 % of control and 176 % of control; the T/C (dose: 20.0 mg/kg/injection, schedule: Q01DX009 (ip), vehicle: saline with Tween-80) is 244 % of control.
For `COc1ccc([N+](=O)[O-])cc1NC(=O)C1C(=O)C(=O)N(c2cc([N+](=O)[O-])ccc2OC)C1=O` (stereo not drawn), the T/C is 100 % of control under setting [7], 107 % of control under setting [8] and 100 % of control under setting [9].
Regarding `CN(C)CN1C(=O)S/C(=C2\C(=O)N(CN(C)C)c3ccccc32)C1=O`, the T/C under setting [7] is 102 % of control, the T/C under setting [8] was 90 % of control and the T/C under setting [9] was 90 % of control.
Take `O=[N+]([O-])c1c(O)c(CNCCCO)cc(CNCCCO)c1O`: the T/C was 98 % of control (dose: 6.25 mg/kg/injection, schedule: Q04DX004 (ip), vehicle: suspension in saline); 99 % of control (dose: 12.5 mg/kg/injection, schedule: Q04DX004 (ip), vehicle: suspension in saline); 101 % of control (dose: 25.0 mg/kg/injection, schedule: Q04DX004 (ip), vehicle: suspension in saline); 118 % of control (dose: 50.0 mg/kg/injection, schedule: Q04DX004 (ip), vehicle: suspension in saline).
Regarding `CCOC(=O)c1cc(-c2ccccc2)c(OC)c(=O)nc1-c1ccccc1`, the T/C under setting [1] is 89 % of control.
With `COc1cc(C(C)(C)C)cc(OC)c1C(O)(c1c(OC)cc(C(C)(C)C)cc1OC)c1c(OC)cc(C(C)(C)C)cc1OC`, the T/C was 123 % of control under setting [6], 116 % of control under setting [1], 108 % of control under setting [2] and 123 % of control under setting [3].
For the molecule `COC(=O)Nc1ccc(Cc2ccc(NC(=O)OC)cc2)cc1`, the T/C by setting is: under setting [1], 95 % of control; under setting [2], 93 % of control and 94 % of control; under setting [3], 103 % of control and 119 % of control; under setting [4], 153 % of control; (dose: 600.0 mg/kg/injection, schedule: Q04DX004 (ip), vehicle: saline with Tween-80) 160 % of control.
Turning to `C=Cc1cc(OC)c2c(c1)c(=O)oc1c2cc(OC)c2c(O)ccc(C3OC(C)C(O)C(C)(O)C3O)c21` (stereo not drawn), the T/C (dose: 10.0 mg/kg/injection, schedule: Q04DX004 (ip), vehicle: DMSO) was 114 % of control; the T/C (dose: 20.0 mg/kg/injection, schedule: Q04DX004 (ip), vehicle: DMSO) is 110 % of control; the T/C (dose: 40.0 mg/kg/injection, schedule: Q04DX004 (ip), vehicle: DMSO) is 88 % of control; the T/C (dose: 80.0 mg/kg/injection, schedule: Q04DX004 (ip), vehicle: DMSO) was 118 % of control; the T/C (dose: 160.0 mg/kg/injection, schedule: Q04DX004 (ip), vehicle: DMSO) was 100 % of control.
For `O=c1[nH]c(=O)n(C2CC(O)C(CO)O2)cc1I` (stereo not drawn), the T/C was 103 % of control and 117 % of control under setting [2]; 108 % of control and 118 % of control under setting [3]; 122 % of control under setting [4]; 158 % of control under setting [5]; 243 % of control (dose: 1600.0 mg/kg/injection, schedule: Q04DX004 (ip), vehicle: saline with Tween-80).
As to `N#CC1C(=O)NC(=O)C(C#N)C1C1C(=O)NC2CCCCC21` (stereo not drawn), the T/C is, setting by setting: (dose: 43.75 mg/kg/injection, schedule: Q04DX004 (ip), vehicle: saline with Tween-80) 93 % of control; (dose: 87.5 mg/kg/injection, schedule: Q04DX004 (ip), vehicle: saline with Tween-80) 100 % of control; (dose: 175.0 mg/kg/injection, schedule: Q04DX004 (ip), vehicle: saline with Tween-80) 95 % of control; (dose: 350.0 mg/kg/injection, schedule: Q04DX004 (ip), vehicle: saline with Tween-80) 95 % of control.
As for `OC1OCC(COc2ccc(Cl)cc2)OC1O` (stereo not drawn), the T/C reads like this: under setting [1], 103 % of control; under setting [2], 114 % of control; under setting [3], 93 % of control; under setting [4], 104 % of control.
Regarding `O=S(Cl)C(Cl)=C(Cl)Cl` (stereo not drawn), under setting [10], the T/C is 86 % of control.
`Cn1c2ccccc2c2ccc3c(c21)C(=O)C=CC3=O`: the T/C under setting [10] is 93 % of control and the T/C under setting [7] is 98 % of control.
In the case of `O=S(=O)(O)c1cc(N=C=S)ccc1/C=C/c1ccc(N=C=S)cc1S(=O)(=O)O`, the T/C (dose: 25.0 mg/kg/injection, schedule: Q04DX004 (ip), vehicle: saline) was 100 % of control; the T/C (dose: 50.0 mg/kg/injection, schedule: Q04DX004 (ip), vehicle: saline) is 103 % of control; the T/C (dose: 100.0 mg/kg/injection, schedule: Q04DX004 (ip), vehicle: saline) was 110 % of control; the T/C (dose: 200.0 mg/kg/injection, schedule: Q04DX004 (ip), vehicle: saline) is 112 % of control.
For the molecule `CCOC(=O)c1ccc2c(=O)[nH]nc(CO)c2c1`, the T/C under setting [6] is 99 % of control; the T/C under setting [1] is 99 % of control; the T/C under setting [2] is 99 % of control; the T/C under setting [3] was 101 % of control; the T/C under setting [4] is 94 % of control.
`Cc1c(O)c(O)c(C)c(CCN)c1O`: the T/C reads like this: (dose: 31.0 mg/kg/injection, schedule: Q04DX004 (ip), vehicle: saline with Tween-80) 100 % of control; (dose: 62.0 mg/kg/injection, schedule: Q04DX004 (ip), vehicle: saline with Tween-80) 104 % of control; (dose: 112.0 mg/kg/injection, schedule: Q04DX004 (ip), vehicle: saline with Tween-80) 94 % of control.
Turning to `O=C(CSc1nnc(CSc2ccc(Cl)cc2)n1-c1ccccc1)NC(=O)Nc1ccccc1`, the T/C (dose: 4.69 mg/kg/injection, schedule: Q04DX004 (ip), vehicle: Klucel (hydroxypropylcellulose) (HPC)) was 103 % of control; the T/C (dose: 9.38 mg/kg/injection, schedule: Q04DX004 (ip), vehicle: Klucel (hydroxypropylcellulose) (HPC)) was 102 % of control; the T/C (dose: 18.75 mg/kg/injection, schedule: Q04DX004 (ip), vehicle: Klucel (hydroxypropylcellulose) (HPC)) was 88 % of control; the T/C (dose: 37.5 mg/kg/injection, schedule: Q04DX004 (ip), vehicle: Klucel (hydroxypropylcellulose) (HPC)) is 88 % of control and 89 % of control.
For the molecule `O=C1c2c(O)ccc(O)c2C(=O)c2c(NCCNCCO)ccc(NCCNCCO)c21`, the T/C was 319 % of control (dose: 0.25 mg/kg/injection, schedule: Q04DX005 (ip), vehicle: saline); 161 % of control (dose: 0.5 mg/kg/injection, schedule: Q04DX004 (ip), vehicle: water); 319 % of control (dose: 0.5 mg/kg/injection, schedule: Q04DX005 (ip), vehicle: saline); 174 % of control (dose: 1.0 mg/kg/injection, schedule: Q04DX004 (ip), vehicle: water); 319 % of control (dose: 1.0 mg/kg/injection, schedule: Q04DX005 (ip), vehicle: saline); 224 % of control (dose: 2.0 mg/kg/injection, schedule: Q04DX004 (ip), vehicle: water). In addition, the T/C (dose: 2.0 mg/kg/injection, schedule: Q04DX005 (ip), vehicle: saline) was 298 % of control.
